≈ marks a conversion by molar mass, not a printed value.
How the values were obtained:
Klebsiella pneumoniae [1] = test: microbe, parasite or virus in culture; type: functional; details: ATCC 13883, 24 h
Description: Antibacterial activity against Klebsiella pneumoniae ATCC 13883 after 24 hrs by macrobroth dilution method

Staphylococcus aureus [2] = test: microbe, parasite or virus in culture; type: functional; details: ATCC 29213, 24 h
Description: Antibacterial activity against Staphylococcus aureus ATCC 29213 after 24 hrs by macrobroth dilution method in the presence of bovine serum albumin

[3] = tested on: Staphylococcus epidermidis; test: microbe, parasite or virus in culture; type: functional; details: Staphylococcus epidermidis, 81388, 24 h
Description: Antibacterial activity against methicillin-susceptible Staphylococcus epidermidis 81388 after 24 hrs by macrobroth dilution method

Streptococcus pneumoniae [4] = test: microbe, parasite or virus in culture; type: functional; details: ATCC 49619, 24 h
Description: Antibacterial activity against Streptococcus pneumoniae ATCC 49619 after 24 hrs by macrobroth dilution method

Klebsiella pneumoniae [5] = test: microbe, parasite or virus in culture; type: functional; details: ATCC 13883, 24 h; remark: listed apart in the source
Description: Antibacterial activity against Klebsiella pneumoniae ATCC 13883 after 24 hrs by macrobroth dilution method in the presence of bovine serum albumin

Enterococcus faecalis [6] = test: microbe, parasite or virus in culture; type: functional; details: ATCC 29212, 24 h
Description: Antibacterial activity against Enterococcus faecalis ATCC 29212 after 24 hrs by macrobroth dilution method

Streptococcus pneumoniae [7] = test: microbe, parasite or virus in culture; type: functional; details: ATCC 49619, 24 h; remark: listed apart in the source
Description: Antibacterial activity against Streptococcus pneumoniae ATCC 49619 after 24 hrs by macrobroth dilution method in the presence of bovine serum albumin

Escherichia coli [8] = test: microbe, parasite or virus in culture; type: functional; details: ATCC 25922, 24 h
Description: Antibacterial activity against Escherichia coli ATCC 25922 after 24 hrs by macrobroth dilution method in the presence of bovine serum albumin

Acinetobacter baumannii [9] = test: microbe, parasite or virus in culture; type: functional; details: isolate CAN-ICU 63169, 24 h
Description: Antibacterial activity against Acinetobacter baumannii 63169 isolate CAN-ICU after 24 hrs by macrobroth dilution method

Escherichia coli [10] = test: microbe, parasite or virus in culture; type: functional; details: isolate CAN-ICU 61714, 24 h
Description: Antibacterial activity against Escherichia coli isolate CAN-ICU 61714 after 24 hrs by macrobroth dilution method

[11] = Toxicity in human erythrocytes assessed as hemolysis at 100 ug/ml by spectrophotometry; details: at 100 µg/mL
[12] = tested on: Stenotrophomonas maltophilia; test: microbe, parasite or virus in culture; type: functional; details: isolate CAN-ICU 62584, 24 h
Description: Antibacterial activity against Stenotrophomonas maltophilia isolate CAN-ICU 62584 after 24 hrs by macrobroth dilution method in the presence of bovine serum albumin

Escherichia coli [13] = test: microbe, parasite or virus in culture; type: functional; details: isolate CAN-ICU 61714, 24 h; remark: listed apart in the source
Description: Antibacterial activity against Escherichia coli isolate CAN-ICU 61714 after 24 hrs by macrobroth dilution method in the presence of bovine serum albumin

Enterococcus faecium [14] = test: microbe, parasite or virus in culture; type: functional; details: ATCC 27270, 24 h
Description: Antibacterial activity against Enterococcus faecium ATCC 27270 after 24 hrs by macrobroth dilution method in the presence of bovine serum albumin

Pseudomonas aeruginosa [15] = test: microbe, parasite or virus in culture; type: functional; details: isolate CAN-ICU 62308, 24 h
Description: Antibacterial activity against Pseudomonas aeruginosa isolate CAN-ICU 62308 after 24 hrs by macrobroth dilution method

Escherichia coli [16] = test: microbe, parasite or virus in culture; type: functional; details: isolate CAN-ICU 63074, 24 h
Description: Antibacterial activity against Escherichia coli isolate CAN-ICU 63074 after 24 hrs by macrobroth dilution method

[17] = tested on: Stenotrophomonas maltophilia; test: microbe, parasite or virus in culture; type: functional; details: isolate CAN-ICU 62584, 24 h; remark: listed apart in the source
Description: Antibacterial activity against Stenotrophomonas maltophilia isolate CAN-ICU 62584 after 24 hrs by macrobroth dilution method

Staphylococcus aureus [18] = test: microbe, parasite or virus in culture; type: functional; details: ATCC 29213, 24 h; remark: listed apart in the source
Description: Antibacterial activity against Staphylococcus aureus ATCC 29213 after 24 hrs by macrobroth dilution method

Pseudomonas aeruginosa [19] = test: microbe, parasite or virus in culture; type: functional; details: ATCC 27853, 24 h
Description: Antibacterial activity against Pseudomonas aeruginosa ATCC 27853 after 24 hrs by macrobroth dilution method

Escherichia coli [20] = test: microbe, parasite or virus in culture; type: functional; details: ATCC 25922, 24 h; remark: listed apart in the source
Description: Antibacterial activity against Escherichia coli ATCC 25922 after 24 hrs by macrobroth dilution method

Enterococcus faecium [21] = test: microbe, parasite or virus in culture; type: functional; details: ATCC 27270, 24 h; remark: listed apart in the source
Description: Antibacterial activity against Enterococcus faecium ATCC 27270 after 24 hrs by macrobroth dilution method

Staphylococcus aureus [22] = test: microbe, parasite or virus in culture; type: functional; details: ATCC 33592, 24 h
Description: Antibacterial activity against methicillin-resistant Staphylococcus aureus ATCC 33592 after 24 hrs by macrobroth dilution method

[23] = tested on: Staphylococcus epidermidis; test: microbe, parasite or virus in culture; type: functional; details: isolate CAN-ICU61589, 24 h
Description: Antibacterial activity against methicillin-resistant Staphylococcus epidermidis isolate CAN-ICU 61589 after 24 hrs by macrobroth dilution method

Acinetobacter baumannii [24] = test: microbe, parasite or virus in culture; type: functional; details: isolate CAN-ICU 63169, 24 h; remark: listed apart in the source
Description: Antibacterial activity against Acinetobacter baumannii isolate CAN-ICU 63169 after 24 hrs by macrobroth dilution method in the presence of bovine serum albumin

Escherichia coli [25] = test: microbe, parasite or virus in culture; type: functional; details: isolate CAN-ICU 63074, 24 h; remark: listed apart in the source
Description: Antibacterial activity against Escherichia coli isolate CAN-ICU 63074 after 24 hrs by macrobroth dilution method in the presence of bovine serum albumin

[26] = tested on: Staphylococcus epidermidis; test: microbe, parasite or virus in culture; type: functional, isolate CAN-ICU 61589; details: isolate CAN-ICU61589, 24 h
Description: Antibacterial activity against methicillin-resistant Staphylococcus epidermidis isolate CAN-ICU 61589 after 24 hrs by macrobroth dilution method in the presence of bovine serum albumin

Pseudomonas aeruginosa [27] = test: microbe, parasite or virus in culture; type: functional; details: isolate CAN-ICU 62308, 24 h; remark: listed apart in the source
Description: Antibacterial activity against Pseudomonas aeruginosa isolate CAN-ICU 62308 after 24 hrs by macrobroth dilution method in the presence of bovine serum albumin

Enterococcus faecalis [28] = test: microbe, parasite or virus in culture; type: functional; details: ATCC 29212, 24 h; remark: listed apart in the source
Description: Antibacterial activity against Enterococcus faecalis ATCC 29212 after 24 hrs by macrobroth dilution method in the presence of bovine serum albumin

[29] = tested on: Staphylococcus epidermidis; test: microbe, parasite or virus in culture; type: functional; details: Staphylococcus epidermidis, 81388, 24 h; remark: listed apart in the source
Description: Antibacterial activity against methicillin-susceptible Staphylococcus epidermidis 81388 after 24 hrs by macrobroth dilution method in the presence of bovine serum albumin

Staphylococcus aureus [30] = test: microbe, parasite or virus in culture; type: functional; details: ATCC 33592, 24 h; remark: listed apart in the source
Description: Antibacterial activity against methicillin-resistant Staphylococcus aureus ATCC 33592 after 24 hrs by macrobroth dilution method in the presence of bovine serum albumin

Pseudomonas aeruginosa [31] = test: microbe, parasite or virus in culture; type: functional; details: ATCC 27853, 24 h; remark: listed apart in the source
Description: Antibacterial activity against Pseudomonas aeruginosa ATCC 27853 after 24 hrs by macrobroth dilution method in the presence of bovine serum albumin

Row | SMILES | MIC90 (Klebsiella pneumoniae [1]) [µg/mL] | MIC90 (Staphylococcus aureus [2]) [µg/mL] | MIC90 [3] [µg/mL] | MIC90 (Streptococcus pneumoniae [4]) [µg/mL] | MIC90 (Klebsiella pneumoniae [5]) [µg/mL] | MIC90 (Enterococcus faecalis [6]) [µg/mL] | MIC90 (Streptococcus pneumoniae [7]) [µg/mL] | MIC90 (Escherichia coli [8]) [µg/mL] | MIC90 (Acinetobacter baumannii [9]) [µg/mL] | MIC90 (Escherichia coli [10]) [µg/mL] | hemolysis at 100 ug/ml [11] [%] | MIC90 [12] [µg/mL] | MIC90 (Escherichia coli [13]) [µg/mL] | MIC90 (Enterococcus faecium [14]) [µg/mL] | MIC90 (Pseudomonas aeruginosa [15]) [µg/mL] | MIC90 (Escherichia coli [16]) [µg/mL] | MIC90 [17] [µg/mL] | MIC90 (Staphylococcus aureus [18]) [µg/mL] | MIC90 (Pseudomonas aeruginosa [19]) [µg/mL] | MIC90 (Escherichia coli [20]) [µg/mL] | also measured
1 | NC[C@@H]1O[C@H](O[C@H]2[C@@H](O)[C@H](O[C@@H]3[C@@H](O)[C@H](N)C[C@H](N)[C@H]3O[C@H]3O[C@H](CN)[C@@H](O)[C@H](O)[C@H]3N)O[C@@H]2CO)[C@H](N)[C@@H](O)[C@@H]1O.O.O=S(=O)(O)O [NEOMYCIN TRISULFATE HYDRATE] | 0.25 | 0.5 | 0.5 | 32 | ≤ 0.25 | 16 | 8 | 0.25 | 64 | 1 | 0.69 | > 512 | 1 | 4 | 256 | 8 | > 512 | 1 | 512 | 4 | MIC90 (Enterococcus faecium [21]): 4 µg/mL; MIC90 (Staphylococcus aureus [22]): 256 µg/mL; MIC90 [23]: ≤ 0.25 µg/mL; MIC90 (Acinetobacter baumannii [24]): 32 µg/mL; MIC90 (Escherichia coli [25]): 16 µg/mL; MIC90 [26]: ≤ 0.25 µg/mL; MIC90 (Pseudomonas aeruginosa [27]): 256 µg/mL; MIC90 (Enterococcus faecalis [28]): 16 µg/mL; MIC90 [29]: 0.5 µg/mL; MIC90 (Staphylococcus aureus [30]): 128 µg/mL; MIC90 (Pseudomonas aeruginosa [31]): 256 µg/mL
2 | Cc1cc(OCc2cn(C[C@H]3O[C@@H](O[C@@H]4[C@@H](O)[C@H](N)C[C@H](N)[C@H]4O[C@H]4O[C@H](CN)[C@@H](O)[C@H](O)[C@H]4N)[C@H](O)[C@@H]3O[C@H]3O[C@@H](CN)[C@@H](O)[C@H](O)[C@H]3N)nn2)cc(C)c1Cl | 8 (≈ 9.59 µM) | 32 (≈ 38.4 µM) | 8 (≈ 9.59 µM) | 64 (≈ 76.7 µM) | 4 (≈ 4.79 µM) | 64 (≈ 76.7 µM) | 128 (≈ 153 µM) | 32 (≈ 38.4 µM) | > 512 | 16 (≈ 19.2 µM) | 0.75 | > 512 | 16 (≈ 19.2 µM) | 64 (≈ 76.7 µM) | 256 (≈ 307 µM) | 128 (≈ 153 µM) | > 512 | 16 (≈ 19.2 µM) | 512 (≈ 614 µM) | 16 (≈ 19.2 µM) | MIC90 (Enterococcus faecium [21]): 128 µg/mL (≈ 153 µM); MIC90 (Staphylococcus aureus [22]): 256 µg/mL (≈ 307 µM); MIC90 [23]: 8 µg/mL (≈ 9.59 µM); MIC90 (Acinetobacter baumannii [24]): > 512 µg/mL; MIC90 (Escherichia coli [25]): 128 µg/mL (≈ 153 µM); MIC90 [26]: 8 µg/mL (≈ 9.59 µM); MIC90 (Pseudomonas aeruginosa [27]): 256 µg/mL (≈ 307 µM); MIC90 (Enterococcus faecalis [28]): 128 µg/mL (≈ 153 µM); MIC90 [29]: 8 µg/mL (≈ 9.59 µM); MIC90 (Staphylococcus aureus [30]): 512 µg/mL (≈ 614 µM); MIC90 (Pseudomonas aeruginosa [31]): 512 µg/mL (≈ 614 µM)

Reference: ChEMBL document CHEMBL1949655, “Neomycin-phenolic conjugates: polycationic amphiphiles with broad-spectrum antibacterial activity, low hemolytic activity and weak serum protein binding” (Bioorg Med Chem Lett, 2012)
